Assay results taken from ChEMBL document CHEMBL3992506, “An in-tether sulfoxide chiral center influences the biophysical properties of the N-capped peptides” (Bioorg Med Chem, 2017).
Numbered stars: 1 amine (or outer) side, 2 acyl side, 3 side chain; on linkers, the order of the positions; unused ones are H or OH. Bridge positions count the residues as written; N and C are the ends. Square brackets hold non-standard residues; d marks the D form. Peptide text beside a SMILES is read from it. * marks the point of attachment. 5FAM = O=C1OC2(c3ccc(O)cc3Oc3cc(O)ccc32)c2ccc(C(=O)*)cc21; X1 = O=C(CN(CC[*:3])[*:1])[*:2]; Mpa = O=C(O)CCS

Columns and labels:
[1] = Drug uptake in HEK293T cells at 10 uM after 4 hrs by flow cytometry; format: ADME, cell-based; conditions: human, hek-293t
[2] = target: T1, Estrogen receptor (Homo sapiens, UniProt P03372); assay: Binding affinity to recombinant human ER-alpha LBD (301 to 553 residues) expressed in Escherichia coli BL21(DE3) after 1 hr by fluorescence polarization assay
T1 sequence (P03372 whole entry): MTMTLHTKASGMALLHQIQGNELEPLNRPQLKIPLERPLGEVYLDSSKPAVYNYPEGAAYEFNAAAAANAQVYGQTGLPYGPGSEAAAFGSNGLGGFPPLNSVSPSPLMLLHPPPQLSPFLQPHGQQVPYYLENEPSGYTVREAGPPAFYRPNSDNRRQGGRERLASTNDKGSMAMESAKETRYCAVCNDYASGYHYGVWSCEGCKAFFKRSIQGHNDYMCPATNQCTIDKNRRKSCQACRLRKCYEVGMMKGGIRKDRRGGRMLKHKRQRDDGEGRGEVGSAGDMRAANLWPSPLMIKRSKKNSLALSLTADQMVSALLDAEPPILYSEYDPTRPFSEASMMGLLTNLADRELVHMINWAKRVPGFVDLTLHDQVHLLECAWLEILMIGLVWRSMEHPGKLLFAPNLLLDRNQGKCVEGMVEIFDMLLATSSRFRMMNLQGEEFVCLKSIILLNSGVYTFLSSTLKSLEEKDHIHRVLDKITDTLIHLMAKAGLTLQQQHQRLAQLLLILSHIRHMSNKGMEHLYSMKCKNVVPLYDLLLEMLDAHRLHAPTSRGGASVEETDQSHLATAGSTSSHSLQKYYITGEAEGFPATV

[3] = Drug uptake in cytoplasm of HEK293T cells at 10 uM after 16 hrs by DAPI staining based confocal microscopic method; format: ADME, cell-based; conditions: human
[4] = Stability assessed as trypsin (unknown origin)-mediated compound hydrolysis by measuring compound half life at 250 uM at 37 degC by LC-MS/MS method; format: ADME; conditions: human

SMILES | Kd [2] | t1/2 [4] | other results
CC[C@H](C)[C@H](NC(=O)CN1CC[S+]([O-])CCC(=O)N[C@@H](CCCNC(=N)N)C(=O)N[C@@H](CCCCNC(=O)c2ccc3c(c2)C(=O)OC32c3ccc(O)cc3Oc3cc(O)ccc32)C1=O)C(=O)N[C@@H](CC(C)C)C(=O)N[C@@H](CCCNC(=N)N)C(=O)N[C@@H](CCCNC(=N)N)C(=O)N[C@@H](CC(C)C)C(=O)N[C@@H](CC(C)C)C(=O)N[C@@H](CCC(N)=O)C(=O)NCC(=O)N[C@@H](Cc1c[nH]c2ccccc12)C(N)=O (stereo in doubt; form 2) | 386 nM | – | Drug uptake [1]: Active; Drug uptake [3]: Active
CC[C@H](C)[C@H](NC(=O)CN1CCSCCC(=O)N[C@@H](CCCNC(=N)N)C(=O)N[C@@H](CCCCNC(=O)c2ccc3c(c2)C(=O)OC32c3ccc(O)cc3Oc3cc(O)ccc32)C1=O)C(=O)N[C@@H](CC(C)C)C(=O)N[C@@H](CCCNC(=N)N)C(=O)N[C@@H](CCCNC(=N)N)C(=O)N[C@@H](CC(C)C)C(=O)N[C@@H](CC(C)C)C(=O)N[C@@H](CCC(N)=O)C(=O)NCC(=O)N[C@@H](Cc1c[nH]c2ccccc12)C(N)=O ([Mpa]RK(5FAM)[X1]ILRRLLQGW-NH2; thioether 1-4) | 212 nM | – | –
CC[C@H](C)[C@H](NC(=O)CNC(=O)[C@H](CCCCNC(=O)c1ccc2c(c1)C(=O)OC21c2ccc(O)cc2Oc2cc(O)ccc21)NC(=O)[C@@H](N)CCCNC(=N)N)C(=O)N[C@@H](CC(C)C)C(=O)N[C@@H](CCCNC(=N)N)C(=O)N[C@@H](CCCNC(=N)N)C(=O)N[C@@H](CC(C)C)C(=O)N[C@@H](CC(C)C)C(=O)N[C@@H](CCC(N)=O)C(=O)NCC(=O)N[C@@H](Cc1c[nH]c2ccccc12)C(=O)O (H-RK(5FAM)GILRRLLQGW-OH) | 162 nM | – | –

More lines, main results first:

Kd [2] | t1/2 [4] | SMILES | other results
– | 5.9 min | CC[C@H](C)[C@H](NC(=O)CN1CC[S+]([O-])CCC(=O)N[C@@H](CCCNC(=N)N)C(=O)N[C@@H](CCCCN)C1=O)C(=O)N[C@@H](CC(C)C)C(=O)N[C@@H](CCCNC(=N)N)C(=O)N[C@@H](CCCNC(=N)N)C(=O)N[C@@H](CC(C)C)C(=O)N[C@@H](CC(C)C)C(=O)N[C@@H](CCC(N)=O)C(=O)NCC(=O)N[C@@H](Cc1c[nH]c2ccccc12)C(N)=O (stereo in doubt) | –
183 nM | – | CC[C@H](C)[C@H](NC(=O)CN1CC[S+]([O-])CCC(=O)N[C@@H](CCCNC(=N)N)C(=O)N[C@@H](CCCCNC(=O)c2ccc3c(c2)C(=O)OC32c3ccc(O)cc3Oc3cc(O)ccc32)C1=O)C(=O)N[C@@H](CC(C)C)C(=O)N[C@@H](CCCNC(=N)N)C(=O)N[C@@H](CCCNC(=N)N)C(=O)N[C@@H](CC(C)C)C(=O)N[C@@H](CC(C)C)C(=O)N[C@@H](CCC(N)=O)C(=O)NCC(=O)N[C@@H](Cc1c[nH]c2ccccc12)C(N)=O (stereo in doubt; form 1) | –
– | 2.1 min | CC[C@H](C)[C@H](NC(=O)CN1CC[S+]([O-])CCC(=O)N[C@@H](CCCNC(=N)N)C(=O)N[C@@H](CCCCN)C1=O)C(=O)N[C@@H](CC(C)C)C(=O)N[C@@H](CCCNC(=N)N)C(=O)N[C@@H](CCCNC(=N)N)C(=O)N[C@@H](CC(C)C)C(=O)N[C@@H](CC(C)C)C(=O)N[C@@H](CCC(N)=O)C(=O)NCC(=O)N[C@@H](Cc1c[nH]c2ccccc12)C(N)=O (single isomer, unassigned; isomer 2) | –
